# Test results as given in PubChem BioAssay AID2060623 (Molecular Pharmacology Branch, DTP, NCI, 2025).
# pIC50: −log10 of the molar value.
# Tested on: 227483-062-R1-J1-PDC complex spheroids with HUVEC/MSC, viability
# Assay: Anticancer human tumor 227483-062-R1-J1-PDC patient-derived pancreatic carcinoma cell line growth inhibition [CLK]
# Details: for pIC50: curve of first compound; for viability, T/C: stronger effect = lower value
# Procedure, shortened: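 Patient-derived tumor cells grown as complex spheroids with HUVEC endothelial cells and mesenchymal stem cells, treated with drug combinations. Concentrations descend in half-log steps from near clinical Cmax, or from 10 microM if Cmax unknown.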
# [1] = second compound 0.0316 µM, first compound 0.0316 µM
# [2] = second compound 0.0316 µM, first compound 0.1 µM
# [3] = second compound 0.1 µM, first compound 0.0316 µM
# [4] = second compound 0.1 µM, first compound 0.1 µM
# [5] = second compound 0.316 µM, first compound 0.0316 µM
# [6] = second compound 0.316 µM, first compound 0.1 µM
# [7] = second compound 1 µM, first compound 0.0316 µM
# [8] = second compound 1 µM, first compound 0.1 µM
# [9] = second compound 3.16 µM, first compound 0.0316 µM
# [10] = second compound 3.16 µM, first compound 0.1 µM
# [11] = second compound 10 µM, first compound 0.0316 µM
# [12] = second compound 10 µM, first compound 0.1 µM
# 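Further: spheroids exposed to compounds for seven days before readout.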
# 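Wherever viability, T/C is given: percent of DMSO vehicle control luminescence as 100% viability.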
structure (smiles),measurement,setting,value
CC(C)CC(NC(=O)C(Cc1ccccc1)NC(=O)c1cnccn1)B(O)O (stereo unspecified) + CNC(=O)c1ccc(Nc2nc(OC3CCCC3)c3c(-c4ccc5nc(C)oc5c4)c[nH]c3n2)c(OC)c1,pIC50,second compound 0.0316 µM,8.82
same,pIC50,second compound 0.1 µM,8.79
same,pIC50,second compound 0.316 µM,8.86
same,pIC50,second compound 1 µM,> 9.02
same,pIC50,second compound 3.16 µM,> 9.02
same,pIC50,second compound 10 µM,> 9.02
same,"viability, T/C","second compound 0.0316 µM, first compound 0.000949 µM",84%
same,"viability, T/C","second compound 0.0316 µM, first compound 0.003 µM",1.62%
same,"viability, T/C","second compound 0.0316 µM, first compound 0.00949 µM",0.49%
same,"viability, T/C","second compound 0.0316 µM, first compound 0.03 µM",1.29%
same,"viability, T/C","second compound 0.0316 µM, first compound 0.0949 µM",0.77%
same,"viability, T/C","second compound 0.0316 µM, first compound 0.3 µM",1.96%
same,"viability, T/C","second compound 0.1 µM, first compound 0.000949 µM",94.3%
same,"viability, T/C","second compound 0.1 µM, first compound 0.003 µM",1.2%
same,"viability, T/C","second compound 0.1 µM, first compound 0.00949 µM",1.56%
same,"viability, T/C","second compound 0.1 µM, first compound 0.03 µM",0.47%
same,"viability, T/C","second compound 0.1 µM, first compound 0.0949 µM",0.71%
same,"viability, T/C","second compound 0.1 µM, first compound 0.3 µM",0.48%
same,"viability, T/C","second compound 0.316 µM, first compound 0.000949 µM",74.2%
same,"viability, T/C","second compound 0.316 µM, first compound 0.003 µM",0.82%
same,"viability, T/C","second compound 0.316 µM, first compound 0.00949 µM",0.43%
same,"viability, T/C","second compound 0.316 µM, first compound 0.03 µM",0.97%
same,"viability, T/C","second compound 0.316 µM, first compound 0.0949 µM",0.43%
same,"viability, T/C","second compound 0.316 µM, first compound 0.3 µM",0.68%
same,"viability, T/C","second compound 1 µM, first compound 0.000949 µM",42.7%
same,"viability, T/C","second compound 1 µM, first compound 0.003 µM",0.52%
same,"viability, T/C","second compound 1 µM, first compound 0.00949 µM",0.29%
same,"viability, T/C","second compound 1 µM, first compound 0.03 µM",0.28%
same,"viability, T/C","second compound 1 µM, first compound 0.0949 µM",1.45%
same,"viability, T/C","second compound 1 µM, first compound 0.3 µM",0.23%
same,"viability, T/C","second compound 3.16 µM, first compound 0.000949 µM",26.4%
same,"viability, T/C","second compound 3.16 µM, first compound 0.003 µM",0.37%
same,"viability, T/C","second compound 3.16 µM, first compound 0.00949 µM",0.79%
same,"viability, T/C","second compound 3.16 µM, first compound 0.03 µM",0.21%
same,"viability, T/C","second compound 3.16 µM, first compound 0.0949 µM",1.01%
same,"viability, T/C","second compound 3.16 µM, first compound 0.3 µM",0.26%
same,"viability, T/C","second compound 10 µM, first compound 0.000949 µM",17%
same,"viability, T/C","second compound 10 µM, first compound 0.003 µM",0.42%
same,"viability, T/C","second compound 10 µM, first compound 0.00949 µM",0.24%
same,"viability, T/C","second compound 10 µM, first compound 0.03 µM",0.26%
same,"viability, T/C","second compound 10 µM, first compound 0.0949 µM",1.09%
same,"viability, T/C","second compound 10 µM, first compound 0.3 µM",0.3%
Cn1ncnc1[C@H]1c2n[nH]c(=O)c3cc(F)cc(c23)N[C@@H]1c1ccc(F)cc1 + CNC(=O)c1ccc(Nc2nc(OC3CCCC3)c3c(-c4ccc5nc(C)oc5c4)c[nH]c3n2)c(OC)c1,pIC50,second compound 0.0316 µM,< 7.00
same,pIC50,second compound 0.1 µM,< 7.00
same,pIC50,second compound 0.316 µM,< 7.00
same,pIC50,second compound 1 µM,< 7.00
same,pIC50,second compound 3.16 µM,> 9.50
same,pIC50,second compound 10 µM,> 9.50
same,"viability, T/C","second compound 0.0316 µM, first compound 0.000316 µM",87.5%
same,"viability, T/C","second compound 0.0316 µM, first compound 0.001 µM",111%
same,"viability, T/C","second compound 0.0316 µM, first compound 0.00316 µM",118%
same,"viability, T/C","second compound 0.0316 µM, first compound 0.01 µM",100%
same,"viability, T/C",[1],89.1%
same,"viability, T/C",[2],97.1%
same,"viability, T/C","second compound 0.1 µM, first compound 0.000316 µM",111%
same,"viability, T/C","second compound 0.1 µM, first compound 0.001 µM",120%
same,"viability, T/C","second compound 0.1 µM, first compound 0.00316 µM",106%
same,"viability, T/C","second compound 0.1 µM, first compound 0.01 µM",97.4%
same,"viability, T/C",[3],97%
same,"viability, T/C",[4],109%
same,"viability, T/C","second compound 0.316 µM, first compound 0.000316 µM",105%
same,"viability, T/C","second compound 0.316 µM, first compound 0.001 µM",84.2%
same,"viability, T/C","second compound 0.316 µM, first compound 0.00316 µM",78.5%
same,"viability, T/C","second compound 0.316 µM, first compound 0.01 µM",94.4%
same,"viability, T/C",[5],94.4%
same,"viability, T/C",[6],70.4%
same,"viability, T/C","second compound 1 µM, first compound 0.000316 µM",69%
same,"viability, T/C","second compound 1 µM, first compound 0.001 µM",59.7%
same,"viability, T/C","second compound 1 µM, first compound 0.00316 µM",59.8%
same,"viability, T/C","second compound 1 µM, first compound 0.01 µM",67.4%
same,"viability, T/C",[7],71.9%
same,"viability, T/C",[8],58%
same,"viability, T/C","second compound 3.16 µM, first compound 0.000316 µM",40.7%
same,"viability, T/C","second compound 3.16 µM, first compound 0.001 µM",44.9%
same,"viability, T/C","second compound 3.16 µM, first compound 0.00316 µM",51.2%
same,"viability, T/C","second compound 3.16 µM, first compound 0.01 µM",48.5%
same,"viability, T/C",[9],49.4%
same,"viability, T/C",[10],41.3%
same,"viability, T/C","second compound 10 µM, first compound 0.000316 µM",40.5%
same,"viability, T/C","second compound 10 µM, first compound 0.001 µM",39.3%
same,"viability, T/C","second compound 10 µM, first compound 0.00316 µM",36.5%
same,"viability, T/C","second compound 10 µM, first compound 0.01 µM",34.2%
same,"viability, T/C",[11],41%
same,"viability, T/C",[12],29.3%
O=C(c1cc(Cc2n[nH]c(=O)c3ccccc23)ccc1F)N1CCN(C(=O)C2CC2)CC1 + CNC(=O)c1ccc(Nc2nc(OC3CCCC3)c3c(-c4ccc5nc(C)oc5c4)c[nH]c3n2)c(OC)c1,pIC50,second compound 0.0316 µM,< 5.00
same,pIC50,second compound 0.1 µM,< 5.00
same,pIC50,second compound 0.316 µM,< 5.00
same,pIC50,second compound 1 µM,< 5.00
same,pIC50,second compound 3.16 µM,7.35
same,pIC50,second compound 10 µM,> 7.50
same,"viability, T/C",[1],86.9%
same,"viability, T/C",[2],84.9%
same,"viability, T/C","second compound 0.0316 µM, first compound 0.316 µM",119%
same,"viability, T/C","second compound 0.0316 µM, first compound 1 µM",93.1%
same,"viability, T/C","second compound 0.0316 µM, first compound 3.16 µM",100%
same,"viability, T/C","second compound 0.0316 µM, first compound 10 µM",98.4%
same,"viability, T/C",[3],86.1%
same,"viability, T/C",[4],117%
same,"viability, T/C","second compound 0.1 µM, first compound 0.316 µM",89.3%
same,"viability, T/C","second compound 0.1 µM, first compound 1 µM",89.5%
same,"viability, T/C","second compound 0.1 µM, first compound 3.16 µM",91.5%
same,"viability, T/C","second compound 0.1 µM, first compound 10 µM",91.3%
same,"viability, T/C",[5],86.8%
same,"viability, T/C",[6],92.9%
same,"viability, T/C","second compound 0.316 µM, first compound 0.316 µM",78.5%
same,"viability, T/C","second compound 0.316 µM, first compound 1 µM",89.3%
same,"viability, T/C","second compound 0.316 µM, first compound 3.16 µM",95.5%
same,"viability, T/C","second compound 0.316 µM, first compound 10 µM",99%
same,"viability, T/C",[7],63.3%
same,"viability, T/C",[8],60.9%
same,"viability, T/C","second compound 1 µM, first compound 0.316 µM",65.4%
same,"viability, T/C","second compound 1 µM, first compound 1 µM",61.1%
same,"viability, T/C","second compound 1 µM, first compound 3.16 µM",80.1%
same,"viability, T/C","second compound 1 µM, first compound 10 µM",66.3%
same,"viability, T/C",[9],50.9%
same,"viability, T/C",[10],54.5%
same,"viability, T/C","second compound 3.16 µM, first compound 0.316 µM",40.5%
same,"viability, T/C","second compound 3.16 µM, first compound 1 µM",48.9%
same,"viability, T/C","second compound 3.16 µM, first compound 3.16 µM",50.3%
same,"viability, T/C","second compound 3.16 µM, first compound 10 µM",47.7%
same,"viability, T/C",[11],37%
same,"viability, T/C",[12],34%
same,"viability, T/C","second compound 10 µM, first compound 0.316 µM",35.3%
same,"viability, T/C","second compound 10 µM, first compound 1 µM",42.1%
same,"viability, T/C","second compound 10 µM, first compound 3.16 µM",42.3%
same,"viability, T/C","second compound 10 µM, first compound 10 µM",39%
